Measurements: patent publication US12565489B2, “Heterocyclyl pyrimidines and triazines as novel fungicides” (Bayer Aktiengesellschaft, priority 2020, dated 2026)

Key:
[1] = Measurement of Log P values by HPLC on reversed phase columns (EEC directive 79/831 Annex V.A8); format: physicochemical; details: LogP
Procedure, shortened: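 Calibration used straight-chain alkan-2-ones (3 to 16 carbons) of known Log P, interpolating linearly between retention times. Values come from reversed-phase LC-UV (EEC 79/831 Annex V.A8), 10% to 95% acetonitrile gradient against 0.1% formic acid, 0.001 molar ammonium acetate, or 0.1% phosphoric acid.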

[2] = tested on: Colletotrichum lindemuthianum; experiment: In vivo preventive test on Colletotrichum lindemuthianum (leaf spot on bean); details: 168 h, 500 ppm of active ingredient, preventive spray on young bean plants, evaluated 7 days after inoculation, read-out: efficacy
Procedure: (§1) The active ingredients were made soluble and homogenized in a mixture of Dimethyl sulfoxide/Acetone//Tween®80 and then diluted in water to the desired concentration. The young plants of bean were treated by spraying the active ingredient prepared as described above. Control plants were treated only with an aqueous solution of Acetone/Dimethyl sulfoxide/Tween® 80. After 24 hours, the plants were contaminated by spraying the leaves with an aqueous suspension of Colletotrichum lindemuthianum spores.

Botrytis cinerea = experiment: In vivo preventive test on Botrytis cinerea (grey mould); details: 500 ppm of active ingredient, preventive spray on young gherkin or cabbage plants, evaluated 4 to 5 days after inoculation, read-out: efficacy
Procedure: as §1, with “gherkin or cabbage” for “bean”, “Botrytis cinerea” for “Colletotrichum lindemuthianum”

SMILES	chromatographic logP [1]	pest or weed control at 500 ppm [2] [%]	pest or weed control at 500 ppm (Botrytis cinerea) [%]
Cc1ncc(Oc2cccc(C(F)(F)F)c2)c(C2=NOCC(Cc3ccc(Br)cc3C)N2)n1 (racemic) [Compound I-021, (5RS)-5-[(4-bromo-2-methyl-phenyl)methyl]-3-[2-methyl-5-[3-(trifluoro-methyl)phenoxy]pyrimidin-4-yl]-5,6-dihydro-4H-1,2,4-oxadiazine]	4.48	90 to 100	90 to 100
Cc1ccc(C[C@@H]2CON=C(c3nc(C)ncc3Oc3cccc(Cl)c3)N2)c(C)c1 (racemic) [Compound I-023]	4.15	90 to 100	90 to 100
Cc1ccc(CC2CON=C(c3nc(C)ncc3Oc3cccc(C(F)(F)F)c3)N2)c(C)c1 (racemic) [Compound I-002, (5RS)-5-(2,4-dimethylbenzyl)-3-{2-methyl-5-[3-(trifluoro-methyl)phenoxy]pyrimidin-4-yl}-5,6-dihydro-4H-1,2,4-oxadiazine]	4.33	90 to 100	90 to 100
Cc1ncc(Oc2cccc(C(F)(F)F)c2)c(C2=NOC[C@@H](Cc3ccc(SC(F)(F)F)cc3)N2)n1 (racemic) [Compound I-030]	4.62	70 to 79	90 to 100
Cc1ncc(Oc2cccc(C(F)(F)F)c2)c(C2=NOCC(Cc3ccc(C4CC4)cc3C)N2)n1 (racemic) [Compound I-029, (5RS)-5-[(4-cyclopropyl-2-methyl-phenyl)methyl]-3-[2-methyl-5-[3-(trifluoromethyl)phenoxy]pyrimidin-4-yl]-5,6-dihydro-4H-1,2,4-oxadiazine]	4.7	90 to 100	90 to 100
CSc1ncc(Oc2cccc(C(F)(F)F)c2)c(C2=NOC[C@@H](Cc3ccc(C)cc3C)N2)n1 (racemic) [Compound I-017]	5.09	80 to 89	90 to 100
Cc1ccc(C[C@@H]2CON=C(c3nc(C)ncc3Oc3cccc(Cl)c3)N2)c(Cl)c1 (racemic) [Compound I-018]	4.22	90 to 100	90 to 100
C=Cc1ccc(C[C@@H]2CON=C(c3nc(C)ncc3Oc3cccc(C(F)(F)F)c3)N2)c(C)c1 (racemic) [Compound I-006]	4.44	90 to 100	80 to 89
C#Cc1cccc(Oc2cnc(C)nc2C2=NOC[C@@H](Cc3ccc(C)cc3C)N2)c1 (racemic) [Compound I-025]	3.85	90 to 100	90 to 100
Cc1ncc(Oc2cccc(C(F)(F)F)c2)c(C2=NOC[C@@H](Cc3ccc(C(F)F)cc3Cl)N2)n1 (racemic) [Compound I-033]	4.02	80 to 89	90 to 100
C=Cc1cccc(Oc2cnc(C)nc2C2=NOC[C@@H](Cc3ccc(C)cc3C)N2)c1 (racemic) [Compound I-019]	4.09	90 to 100	90 to 100
Cc1cccc(Oc2cnc(C)nc2C2=NOC[C@@H](Cc3ccc(C)cc3C)N2)c1 (racemic) [Compound I-004]	3.95	90 to 100	90 to 100
Cc1ccc(C[C@@H]2CON=C(c3nc(C)ncc3Oc3cccc(C(F)(F)F)c3)N2)c(Cl)c1 (racemic) [Compound I-013]	4.47	90 to 100	90 to 100
Cc1ccc(C[C@@H]2CON=C(c3nc(C)ncc3Oc3cccc(C4CC4)c3F)N2)c(Cl)c1 (racemic) [Compound I-008]	4.49	90 to 100	90 to 100
Cc1ccc(C[C@@H]2CON=C(c3nc(C)ncc3Oc3cccc(C4CC4)c3F)N2)c(C)c1 (racemic) [Compound I-016]	4.41	90 to 100	90 to 100
Cc1ccc(C[C@@H]2CON=C(c3nc(C)ncc3Oc3cccc(Cl)c3F)N2)c(Cl)c1 (racemic) [Compound I-005]	4.19	90 to 100	90 to 100
COc1cccc(Oc2cnc(C)nc2C2=NOC[C@@H](Cc3ccc(C)cc3C)N2)c1 (racemic) [Compound I-032]	3.66	90 to 100	90 to 100
C#Cc1ccc(CC2CON=C(c3nc(C)ncc3Oc3cccc(C(F)(F)F)c3)N2)c(C)c1 (racemic) [Compound I-026, (5RS)-5-[(4-ethynyl-2-methyl-phenyl)methyl]-3-[2-methyl-5-[3-(trifluoromethyl)phenoxy]pyrimidin-4-yl]-5,6-dihydro-4H-1,2,4-oxadiazine]	3.99	90 to 100	90 to 100
Cc1ccc(CC2CON=C(c3nc(C4CC4)ncc3Oc3cccc(C(F)(F)F)c3)N2)c(C)c1 (racemic) [Compound I-001, (5RS)-3-{2-cyclopropyl-5-[3-(trifluoro-methyl)phenoxy]pyrimidin-4-yl}-5-(2,4-dimethylbenzyl)-5,6-dihydro-4H-1,2,4-oxadiazine]	5.16	90 to 100	90 to 100
Cc1ccc(C[C@@H]2CON=C(c3nc(C)ncc3Oc3cccc(Br)c3)N2)c(C)c1 (racemic) [Compound I-009]	4.44	90 to 100	90 to 100
Cc1ccc(C[C@@H]2CON=C(c3nc(C)ncc3Oc3cccc(C4CC4)c3)N2)c(C)c1 (racemic) [Compound I-024]	4.55	90 to 100	90 to 100
